Columns and labels:
Test in all cases: biochemical
Set-up in all cases: KINOMEscan scanMAX active site-directed competition binding assay, percent of control, 468 kinases
Details in all cases: competition binding, percent of control
TRKC = molecular target: T1, TRKC (Homo sapiens, UniProt Q16288)
T1 construct: gene NTRK3
Method in brief: (§1)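 KINOMEscan active site-directed competition binding assay against 468 human kinases with 100 μM S-carvone. Binding expressed as % of control, with 35% of control as the inhibition threshold.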

[1] = molecular target: T2, ABL1(E255K)-phosphorylated (Homo sapiens, UniProt P00519, E255K)
T2 construct: phosphorylated
Method in brief: as §1

PCTK3 = molecular target: T3, PCTK3 (Homo sapiens, UniProt Q07002)
T3 construct: gene CDK18
Method in brief: as §1

MEK4 = molecular target: T4, MEK4 (Homo sapiens, UniProt P45985)
T4 construct: gene MAP2K4
Method in brief: as §1

NEK6 = NEK6 (Homo sapiens, UniProt Q9HC98)
Method in brief: as §1

PAK1 = PAK1 (Homo sapiens, UniProt Q13153)
Method in brief: as §1

PLK2 = PLK2 (Homo sapiens, UniProt Q9NYY3)
Method in brief: as §1

GSK3B = GSK3B (Homo sapiens, UniProt P49841)
Method in brief: as §1

CSNK1G2 = CSNK1G2 (Homo sapiens, UniProt P78368)
Method in brief: as §1

SRPK3 = SRPK3 (Homo sapiens, UniProt Q9UPE1)
Method in brief: as §1

JNK1 = molecular target: T5, JNK1 (Homo sapiens, UniProt P45983)
T5 construct: gene MAPK8
Method in brief: as §1

RET(V804M) = RET(V804M) (Homo sapiens, UniProt P07949, V804M)
Method in brief: as §1

ANKK1 = ANKK1 (Homo sapiens, UniProt Q8NFD2)
Method in brief: as §1

MAP3K3 = MAP3K3 (Homo sapiens, UniProt Q99759)
Method in brief: as §1

ERBB4 = ERBB4 (Homo sapiens, UniProt Q15303)
Method in brief: as §1

MST1 = molecular target: T6, MST1 (Homo sapiens, UniProt Q13043)
T6 construct: gene STK4
Method in brief: as §1

MUSK = MUSK (Homo sapiens, UniProt O15146)
Method in brief: as §1

DLK = molecular target: T7, DLK (Homo sapiens, UniProt Q12852)
T7 construct: gene MAP3K12
Method in brief: as §1

CHEK2 = CHEK2 (Homo sapiens, UniProt O96017)
Method in brief: as §1

[2] = molecular target: T8, RPS6KA4(Kin.Dom.1-N-terminal) (Homo sapiens, UniProt O75676)
T8 construct: Kin.Dom.1-N-terminal
Method in brief: as §1

PLK1 = PLK1 (Homo sapiens, UniProt P53350)
Method in brief: as §1

CSNK1A1L = CSNK1A1L (Homo sapiens, UniProt Q8N752)
Method in brief: as §1

Chain of NEK6 (Q9HC98 whole entry): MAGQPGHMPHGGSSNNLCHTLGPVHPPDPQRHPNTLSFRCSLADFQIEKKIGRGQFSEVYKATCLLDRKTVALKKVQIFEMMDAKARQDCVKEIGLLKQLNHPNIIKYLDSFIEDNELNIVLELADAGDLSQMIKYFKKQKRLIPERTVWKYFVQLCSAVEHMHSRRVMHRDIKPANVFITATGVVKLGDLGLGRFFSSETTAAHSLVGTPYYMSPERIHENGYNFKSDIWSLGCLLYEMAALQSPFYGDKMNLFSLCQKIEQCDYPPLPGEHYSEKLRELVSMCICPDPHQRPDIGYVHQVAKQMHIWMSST
Chain of CHEK2 (O96017 whole entry): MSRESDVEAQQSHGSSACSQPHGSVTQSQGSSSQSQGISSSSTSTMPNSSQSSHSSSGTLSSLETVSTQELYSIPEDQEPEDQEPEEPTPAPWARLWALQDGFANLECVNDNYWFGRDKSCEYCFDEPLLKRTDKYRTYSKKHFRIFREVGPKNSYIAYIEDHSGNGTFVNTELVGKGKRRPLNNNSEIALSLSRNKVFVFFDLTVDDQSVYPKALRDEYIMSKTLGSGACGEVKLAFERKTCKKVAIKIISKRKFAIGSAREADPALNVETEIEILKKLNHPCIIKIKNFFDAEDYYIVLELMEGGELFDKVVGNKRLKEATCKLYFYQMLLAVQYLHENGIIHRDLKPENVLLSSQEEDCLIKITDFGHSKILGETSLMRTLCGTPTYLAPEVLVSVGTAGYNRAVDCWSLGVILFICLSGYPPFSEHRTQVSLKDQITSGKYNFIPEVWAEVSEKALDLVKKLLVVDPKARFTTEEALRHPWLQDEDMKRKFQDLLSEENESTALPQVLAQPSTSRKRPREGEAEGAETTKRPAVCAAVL
T3 sequence (Q07002 whole entry): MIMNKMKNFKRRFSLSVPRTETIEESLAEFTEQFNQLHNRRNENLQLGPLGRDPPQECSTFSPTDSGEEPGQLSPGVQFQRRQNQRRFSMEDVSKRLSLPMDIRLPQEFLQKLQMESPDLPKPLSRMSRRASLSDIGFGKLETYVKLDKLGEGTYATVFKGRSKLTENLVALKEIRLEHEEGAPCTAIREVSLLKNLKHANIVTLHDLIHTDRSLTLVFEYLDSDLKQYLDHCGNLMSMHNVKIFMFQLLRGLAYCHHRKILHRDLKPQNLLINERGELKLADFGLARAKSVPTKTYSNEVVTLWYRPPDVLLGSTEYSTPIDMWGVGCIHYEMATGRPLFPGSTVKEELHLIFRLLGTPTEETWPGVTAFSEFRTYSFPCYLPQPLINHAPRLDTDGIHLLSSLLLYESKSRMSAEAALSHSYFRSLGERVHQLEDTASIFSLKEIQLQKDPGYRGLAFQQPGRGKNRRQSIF
T2 sequence (P00519 whole entry E255K): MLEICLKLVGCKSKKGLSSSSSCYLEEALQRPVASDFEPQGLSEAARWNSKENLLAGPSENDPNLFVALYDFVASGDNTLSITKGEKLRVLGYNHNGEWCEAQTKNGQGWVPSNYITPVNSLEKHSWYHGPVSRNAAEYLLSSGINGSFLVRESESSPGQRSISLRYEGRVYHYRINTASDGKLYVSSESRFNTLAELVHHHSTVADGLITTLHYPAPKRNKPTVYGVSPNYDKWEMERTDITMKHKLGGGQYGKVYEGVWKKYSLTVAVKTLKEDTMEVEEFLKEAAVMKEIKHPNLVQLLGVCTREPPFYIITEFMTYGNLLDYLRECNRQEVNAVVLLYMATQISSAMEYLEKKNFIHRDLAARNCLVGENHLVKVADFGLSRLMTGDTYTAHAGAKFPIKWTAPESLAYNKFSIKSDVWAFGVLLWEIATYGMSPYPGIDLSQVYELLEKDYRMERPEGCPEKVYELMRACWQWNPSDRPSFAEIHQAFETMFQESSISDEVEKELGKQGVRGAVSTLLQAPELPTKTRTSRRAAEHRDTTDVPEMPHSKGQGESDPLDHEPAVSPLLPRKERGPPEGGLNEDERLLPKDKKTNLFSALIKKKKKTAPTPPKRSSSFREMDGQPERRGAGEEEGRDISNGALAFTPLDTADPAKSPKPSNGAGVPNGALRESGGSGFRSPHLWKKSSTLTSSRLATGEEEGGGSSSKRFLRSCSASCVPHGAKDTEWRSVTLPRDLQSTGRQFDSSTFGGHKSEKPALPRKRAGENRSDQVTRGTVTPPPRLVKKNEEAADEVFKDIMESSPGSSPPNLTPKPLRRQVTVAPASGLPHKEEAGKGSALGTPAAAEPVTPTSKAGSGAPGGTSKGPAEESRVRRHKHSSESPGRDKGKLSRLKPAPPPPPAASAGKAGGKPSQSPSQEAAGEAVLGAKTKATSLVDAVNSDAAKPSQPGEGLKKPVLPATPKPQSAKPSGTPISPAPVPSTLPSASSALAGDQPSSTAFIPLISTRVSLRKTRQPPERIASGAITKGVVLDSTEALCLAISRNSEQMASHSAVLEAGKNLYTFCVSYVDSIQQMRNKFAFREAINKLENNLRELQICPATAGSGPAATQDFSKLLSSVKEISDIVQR
T7 sequence (Q12852 whole entry): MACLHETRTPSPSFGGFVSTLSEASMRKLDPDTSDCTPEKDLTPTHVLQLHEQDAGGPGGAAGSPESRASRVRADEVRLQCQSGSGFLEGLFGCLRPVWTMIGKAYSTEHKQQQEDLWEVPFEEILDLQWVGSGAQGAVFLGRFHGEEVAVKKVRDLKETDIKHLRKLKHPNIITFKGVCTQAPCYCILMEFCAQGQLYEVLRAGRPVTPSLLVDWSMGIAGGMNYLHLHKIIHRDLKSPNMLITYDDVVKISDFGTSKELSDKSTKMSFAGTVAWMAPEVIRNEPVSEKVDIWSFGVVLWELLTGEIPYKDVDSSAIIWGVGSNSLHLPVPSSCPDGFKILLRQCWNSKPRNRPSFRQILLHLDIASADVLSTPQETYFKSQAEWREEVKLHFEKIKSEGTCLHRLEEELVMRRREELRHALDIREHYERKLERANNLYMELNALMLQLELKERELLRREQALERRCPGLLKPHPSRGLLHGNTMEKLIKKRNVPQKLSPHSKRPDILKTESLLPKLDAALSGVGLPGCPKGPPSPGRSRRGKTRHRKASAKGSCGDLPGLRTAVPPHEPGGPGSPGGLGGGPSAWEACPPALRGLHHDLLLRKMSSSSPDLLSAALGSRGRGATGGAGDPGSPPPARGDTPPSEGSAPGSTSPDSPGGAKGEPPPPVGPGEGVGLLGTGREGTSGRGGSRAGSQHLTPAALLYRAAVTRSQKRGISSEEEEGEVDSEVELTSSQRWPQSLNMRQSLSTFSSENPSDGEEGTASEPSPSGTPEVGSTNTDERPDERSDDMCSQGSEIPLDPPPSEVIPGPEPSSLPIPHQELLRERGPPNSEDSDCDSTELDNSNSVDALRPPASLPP
T1 sequence (Q16288 whole entry): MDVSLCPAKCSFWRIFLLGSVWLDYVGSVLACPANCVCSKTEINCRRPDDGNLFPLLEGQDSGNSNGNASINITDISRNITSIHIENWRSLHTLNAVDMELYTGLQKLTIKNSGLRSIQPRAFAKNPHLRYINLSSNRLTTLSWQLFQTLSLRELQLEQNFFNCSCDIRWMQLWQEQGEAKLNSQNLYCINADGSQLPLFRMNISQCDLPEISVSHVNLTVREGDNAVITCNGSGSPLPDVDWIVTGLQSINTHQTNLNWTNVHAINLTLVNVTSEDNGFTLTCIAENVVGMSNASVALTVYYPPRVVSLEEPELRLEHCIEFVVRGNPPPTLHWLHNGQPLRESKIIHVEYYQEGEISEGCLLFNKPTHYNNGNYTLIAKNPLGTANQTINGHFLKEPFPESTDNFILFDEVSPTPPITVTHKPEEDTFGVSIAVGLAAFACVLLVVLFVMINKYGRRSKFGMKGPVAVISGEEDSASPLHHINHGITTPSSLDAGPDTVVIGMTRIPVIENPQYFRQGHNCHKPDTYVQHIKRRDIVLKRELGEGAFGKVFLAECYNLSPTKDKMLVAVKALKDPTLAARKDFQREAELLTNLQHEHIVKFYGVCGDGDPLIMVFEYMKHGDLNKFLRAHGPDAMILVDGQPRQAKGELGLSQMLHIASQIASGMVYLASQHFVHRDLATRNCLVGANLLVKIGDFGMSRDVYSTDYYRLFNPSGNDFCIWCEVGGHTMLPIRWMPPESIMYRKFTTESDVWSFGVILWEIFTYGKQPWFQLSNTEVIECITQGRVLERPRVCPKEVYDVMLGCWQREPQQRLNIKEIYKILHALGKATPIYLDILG
Chain of MAP3K3 (Q99759 whole entry): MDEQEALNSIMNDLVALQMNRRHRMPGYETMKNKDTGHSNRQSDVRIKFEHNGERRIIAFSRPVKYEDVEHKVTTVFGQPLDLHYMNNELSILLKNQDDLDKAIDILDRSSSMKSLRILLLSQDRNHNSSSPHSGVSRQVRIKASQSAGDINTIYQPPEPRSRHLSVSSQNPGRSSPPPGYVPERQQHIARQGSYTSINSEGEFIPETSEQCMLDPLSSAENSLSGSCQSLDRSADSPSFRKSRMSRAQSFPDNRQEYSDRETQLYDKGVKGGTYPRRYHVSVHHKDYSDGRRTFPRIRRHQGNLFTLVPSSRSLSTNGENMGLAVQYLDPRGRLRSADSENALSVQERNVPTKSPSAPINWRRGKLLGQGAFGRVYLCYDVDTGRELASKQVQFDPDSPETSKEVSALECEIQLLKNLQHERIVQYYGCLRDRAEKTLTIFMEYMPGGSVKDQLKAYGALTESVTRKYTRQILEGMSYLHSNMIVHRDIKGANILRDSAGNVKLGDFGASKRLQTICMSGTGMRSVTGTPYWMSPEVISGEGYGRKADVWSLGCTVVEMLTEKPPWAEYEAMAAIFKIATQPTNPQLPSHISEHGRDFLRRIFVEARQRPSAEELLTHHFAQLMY

`C=C(C)[C@H]1CC=C(C)C(=O)C1` [S-carvone] gave a remaining binding at 100 µM (TRKC) of 82%, a remaining binding at 100 µM [1] of 72% and a remaining binding at 100 µM (PCTK3) of 85%. For the same molecule, the remaining binding at 100 µM (MEK4) was 74%, the remaining binding at 100 µM (NEK6) was 84% and the remaining binding at 100 µM (PAK1) was 66%. It also gave a remaining binding at 100 µM (PLK2) of 68%, a remaining binding at 100 µM (GSK3B) of 82% and a remaining binding at 100 µM (CSNK1G2) of 87%. It also gave a remaining binding at 100 µM (SRPK3) of 61%, a remaining binding at 100 µM (JNK1) of 80% and a remaining binding at 100 µM (RET(V804M)) of 96%. It also gave a remaining binding at 100 µM (ANKK1) of 91%, a remaining binding at 100 µM (MAP3K3) of 54% and a remaining binding at 100 µM (ERBB4) of 81%. For the same molecule, the remaining binding at 100 µM (MST1) was 81%, the remaining binding at 100 µM (MUSK) was 100% and the remaining binding at 100 µM (DLK) was 88%. The remaining binding at 100 µM (CHEK2) was 99%, the remaining binding at 100 µM [2] was 87% and the remaining binding at 100 µM (PLK1) was 68%. The remaining binding at 100 µM (CSNK1A1L) was 85%.

From PMC10174618, “Monoterpenoid aryl hydrocarbon receptor allosteric antagonists protect against ultraviolet skin damage in female mice” (Nature Communications, 2023)
